Measurements from patent publication US9550811B2, “Peptide scaffold design” (BIONOR IMMUNO AS, priority 2010, dated 2017).
Where no end group is shown, it is not given here. [ ]: non-standard residue; d: D form. Nle = CCCC[C@H](N)C(=O)O

Experiments:
Experiment in all cases: REVEAL binding assay
Settings in all cases: score as percentage of the signal generated by the positive control peptide
HLA-B8 = test system: HLA-B8
HLA-B35 = test system: HLA-B35
Text: (§2) HLA-A1, HLA-A2, HLA-A3, HLA-A11, HLA-A24, HLA-A29, HLA-B7, HLA-B8, HLA-B14, HLA-B15, HLA-B27, HLA-B35, HLA-B40.
(§3) The REVEAL™ binding assay determined the ability of each candidate peptide to bind to one or more MHC class I alleles and stabilizing the MHC-peptide complex. […] Detection is based on the presence or absence of the native conformation of the MHC-peptide complex. Each peptide is given a score relative to the positive control peptide, which is a known T cell epitope.

HLA-B7 = HLA-B7 (Homo sapiens, UniProt P01889)
Method in brief: (§1)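 Synthetic nonamer peptides were tested for their ability to bind and stabilize MHC class I–peptide complexes, detected by the native conformation of the complex. Each peptide is scored relative to a positive-control known T-cell epitope.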

HLA-A2 = HLA-A2 (Homo sapiens, UniProt P04439, D140Y/D185E/D98H/E176V/E277Q/G131W/G231S/I119V/I121R/I166T/I218V/N151K/N90K/P208A/P217A/Q86G/Q94H/R138H/R169H)
Method in brief: as §1

HLA-B27 = HLA-B27 (Homo sapiens, UniProt P01889, D138H/D201E/E176V/E204Q/G107R/H137Y/K202T/N104T/N87E/Q56L/Q94K/R106L/R155S/R180L/S101D/S121N/S48T/Y140D/Y33H/Y91C)
Method in brief: as §1

HLA-A11 = HLA-A11 (Homo sapiens, UniProt P04439, A114D/F33Y/S129P)
Method in brief: as §1

HLA-A3 = HLA-A3 (Homo sapiens, UniProt P04439)
Method in brief: as §1

HLA-B15 = test system: HLA-B15
HLA-A1 = test system: HLA-A1
HLA-B14 = test system: HLA-B14
Text: as §2, §3

HLA-A24 = test system: HLA-A24
Experimental: Binding properties to HLA for the ninemers listed in table 6 were tested for the following HLA-classes:
as §2, §3

HLA-B40 = test system: HLA-B40
Method in brief: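 Each candidate ninemer is assessed for binding and stabilizing the allele's MHC–peptide complex, detected as native conformation. Results are given relative to a positive control epitope, and an intermediate binder serves as a performance check.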

HLA-A29 = test system: HLA-A29

Sequence of HLA-B7 (P61769 21-119): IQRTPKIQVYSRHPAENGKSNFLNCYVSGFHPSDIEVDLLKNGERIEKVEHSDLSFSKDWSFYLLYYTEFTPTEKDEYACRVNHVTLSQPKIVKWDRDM
Sequence of HLA-B7 (P01889 25-299): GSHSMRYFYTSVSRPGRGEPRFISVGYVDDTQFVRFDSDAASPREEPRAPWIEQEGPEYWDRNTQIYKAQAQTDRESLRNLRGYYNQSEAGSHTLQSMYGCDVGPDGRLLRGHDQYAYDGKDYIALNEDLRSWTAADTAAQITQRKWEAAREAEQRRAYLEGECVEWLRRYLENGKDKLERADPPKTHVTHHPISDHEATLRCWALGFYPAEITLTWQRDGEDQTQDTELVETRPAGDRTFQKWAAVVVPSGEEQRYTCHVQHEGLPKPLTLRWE
Sequence of HLA-A3 (P04439 25-299): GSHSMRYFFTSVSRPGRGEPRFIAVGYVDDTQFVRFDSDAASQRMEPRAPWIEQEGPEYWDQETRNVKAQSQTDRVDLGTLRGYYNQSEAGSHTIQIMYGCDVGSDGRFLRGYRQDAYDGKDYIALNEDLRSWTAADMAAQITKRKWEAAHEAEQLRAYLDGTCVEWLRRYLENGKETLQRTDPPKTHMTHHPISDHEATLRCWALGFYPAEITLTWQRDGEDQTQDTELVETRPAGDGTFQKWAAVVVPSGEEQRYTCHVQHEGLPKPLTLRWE
Sequence of HLA-A3 (P61769 21-119, further chain): as the sequence (P61769 21-119) above

| Substance | REVEAL binding score, HLA-type B8 (HLA-B8) [%] | REVEAL binding score, HLA-type B35 (HLA-B35) [%] | REVEAL binding score, HLA-type B7 (HLA-B7) [%] | REVEAL binding score, HLA-type A2 (HLA-A2) [%] | REVEAL binding score, HLA-type B27 (HLA-B27) [%] | REVEAL binding score, HLA-type A11 (HLA-A11) [%] | REVEAL binding score, HLA-type A3 (HLA-A3) [%] | REVEAL binding score, HLA-type B15 (HLA-B15) [%] | REVEAL binding score, HLA-type A1 (HLA-A1) [%] | REVEAL binding score, HLA-type B14 (HLA-B14) [%] | REVEAL binding score, HLA-type A24 (HLA-A24) [%] | REVEAL binding score, HLA-type B40 (HLA-B40) [%] | REVEAL binding score, HLA-type A29 (HLA-A29) [%] |
| --- | --- | --- | --- | --- | --- | --- | --- | --- | --- | --- | --- | --- | --- |
| NLGKVIDTL | 16.86 | 4.39 | 2.64 | 7.70 | 2.64 | 12.81 | 6.41 | 12.59 | 18.14 | 0.57 | 1.16 | 53.82 | 10.67 |
| NLPGCSFSI | 9.89 | 5.31 | 1.54 | 47.28 | 3.37 | 3.47 | 8.15 | 3.11 | 13.15 | 0.36 | 85.91 | 60.68 | 22.34 |
| YATGNLPGC | 9.51 | 4.52 | 0.76 | 22.46 | 2.44 | 2.16 | 3.67 | 5.09 | 8.10 | 0.41 | 1.20 | 77.49 | 18.82 |
| TGNLPGCSF | 8.62 | 11.40 | 2.38 | 5.18 | 2.37 | 2.56 | 3.71 | 45.07 | 11.97 | 0.86 | 4.81 | 73.71 | 18.89 |
| IRNLGRVIE | 9.10 | 1.98 | 1.43 | 8.77 | 1.84 | 5.31 | 3.89 | 4.06 | 14.22 | 30.77 | 0.61 | 21.40 | 11.06 |
| PRLGVRATR | 11.46 | 1.65 | 42.64 | 6.85 | 0.86 | 2.73 | 3.63 | 10.04 | 17.77 | 0.14 | 0.97 | 14.52 | 13.35 |
| AEL[Nle]GYIPL | 14.74 | 1.91 | 1.11 | 7.49 | 0.77 | 3.61 | 3.05 | 10.20 | 16.63 | 0.12 | 0.37 | 72.73 | 20.78 |
| ATGNLPGCS | 10.73 | 7.00 | 1.12 | 4.62 | 2.56 | 2.54 | 3.64 | 3.81 | 7.13 | 0.87 | 0.64 | 90.48 | 22.84 |
| RALAHGVRV | 18.08 | 6.07 | 2.55 | 8.69 | 6.37 | 4.45 | 2.51 | 11.84 | 20.77 | 0.46 | 0.84 | 70.26 | 29.73 |
| VGGVYLLPR | 11.57 | 4.02 | 1.15 | 8.73 | 0.79 | 4.16 | 3.41 | 13.22 | 17.88 | 0.44 | 0.34 | 55.61 | 14.20 |
| TFSIYLIVS | 9.52 | 2.48 | 1.28 | 2.02 | 1.49 | 2.89 | 0.91 | 8.63 | 9.93 | 0.37 | 0.60 | 23.23 | 8.58 |
| NYATGNLPG | 9.96 | 6.44 | 0.51 | 3.94 | 2.33 | 4.69 | 8.65 | 6.06 | 11.16 | 0.79 | 1.13 | 75.28 | 34.26 |
